Experimental data from patent US12459951B2, “Compounds that interact with RAS superfamily proteins for treatment of cancers, inflammatory diseases, rasopathies, and fibrotic disease” (SHY Therapeutics, LLC, priority 2022, dated 2025).

Columns and labels:
IL6 = experiment: IL-6 Quantification Assay (ELISA), LPS-stimulated RAW 264.7; type: cell-based; design: inhibition: dose or concentration left out as unconfirmed; settings: Mus musculus, RAW264.7; read-out: IL-6: % inh.
TNF-alpha = TNF-alpha Quantification Assay (ELISA), LPS-stimulated RAW 264.7; type: cell-based; settings: Mus musculus, RAW264.7; at 10 μM; read-out: TNFα: % inh.
Rac-1 = molecular target: T1, Rac-1 (Homo sapiens, UniProt P63000); experiment: Ras GTP Binding Domain Inhibition Assay (Ras Superfamily Assay); settings: read-out: Rac-1: % inh.
T1 construct: made in house
From the text: (§1) Biological Example 3: Ras GTP Binding Domain Inhibition Assay
(§2) The assays described in Example 3 are collectively referred to as the “Ras Superfamily Assay” throughout this application.
(§3) A Ras Superfamily Activity Assay (as disclosed in International Application No. PCT/US2018/038613, filed Jun. 20, 2018, which is incorporated by reference in its entirety) was used as a specific assay to evaluate compounds against the following for the following Ras Superfamily proteins: KRas wild type, KRas Q61H mutant, KRas G12C mutant, KRas G12D mutant, Rac-1, and Rho-A.
(§4) • 25 mM Tris-HCl, pH 7.4 • 27 mM KCl • 137 mM NaCl • 1 mM MgCl2 • 1 mM DTT Buffer-II: • 50 mM Tris-HCl, pH 7.0 • 1 mM MgCl2 • 1 mM DTT
(§5) The small GTPases proteins: KRas wild type. KRas Q61H mutant, KRas G12C mutant, KRas G12D mutants, Rac-1, and Rho-A were expressed as His-tagged proteins. In addition, the Guanosine nucleotide Exchange Factor (GEF) Sos protein (residues 556-1049) was expressed as a His-tagged protein. In cells, the guanine nucleotide exchange factor Sos protein promotes activation of Ras proteins by stimulating an exchange of GDP for GTP. The inclusion of Sos to the Ras GTP binding domain inhibition assay may be considered as an alternative representation of physiological cellular conditions for evaluating the inhibitory activity of some of the tested small molecules.
(§6) For the assay, all purified small GTPases proteins were diluted in Buffer-I or Buffer-II to a final concentration of 10-30 μg/mL. 200 μL of each diluted protein was added to a nickel-coated 96-well plate and incubated overnight at 4° C. Then the protein solution was discarded and 200 μL of Buffer-I or Buffer-II was added to each well in the presence of 1% DMSO. Compounds to be tested were added to the protein-coated wells at final concentration of 20 μM, and incubated for 3 hours at room temperature with and without 10-30 μg/mL of Sos added to the final hour of the incubation. When performing IC50 measurements a serial dilution of all tested concentrations was added. Then Cy3-GTP or Cy5-GTP was added to each well to a final concentration of 100 nM. The labeled GTP was incubated for 45 minutes at room temperature. Following GTP incubation, wells were washed 3× in Buffer-I or Buffer-II and 200 μL of Buffer-I or Buffer-II was added to each well. Following washes, the amount of bound labeled-GTP was measured using a SpectraMax M3 (Molecular Devices).

KRas G12D mutant = experiment: as above; settings: 20 μM compound
From the text: as §1, §2, §3, §4, §5, §6

KRas wild type = experiment: as above; settings: 20 μM compound
From the text: as §1, §2, §3, §4, §5, §6

Q: `COC(=O)c1c(-c2ccn(C)n2)cn2nc(-c3nccn3C)nc(N[C@H]3CC[C@H](OC)C3)c12` (racemic) [Compound 180, Methyl 4-(((1S,3S)-3-methoxycyclopentyl)amino)-2-(1-methyl-1H-imidazol-2-yl)-6-(1-methyl-1H-pyrazol-3-yl)pyrrolo[2,1-f][1,2,4]triazine-5-carboxylate] was tested. Which inhibition (IL6) did it give?
A: 50 to 74%

Q: And the inhibition at 10 µM (TNF-alpha)?
A: 25 to 49%

Q: What about the inhibition at 20 µM (Rac-1) of the same compound?
A: 1 to 25%

Q: What about the “KRas G12D mutant + SOS: % inh.” value (KRas G12D mutant; with SOS) of the same compound?
A: A (A = 1-25% inhibition)

Q: And the “KRas G12D mutant: % inh.” value (KRas G12D mutant; without SOS)?
A: A (A = 1-25% inhibition)

Q: And the “KRas wild type + SOS: % inh.” value (KRas wild type; with SOS)?
A: A (A = 1-25% inhibition)

Q: And the “KRas wild type: % inh.” value (KRas wild type; without SOS)?
A: A (A = 1-25% inhibition)
